Measurements taken from patent publication EP1075186B1, “METHOD OF HSV PROPHYLAXIS” (The Children's Hospital Research Foundation, priority 1998, dated 1999).

Key:
[1] = system: VZV; assay: In vitro assay with VZV on HFF cell monolayers; format: cell-based; details: Example 2, Table 17, 0.1 mg/ml, footnote: this toxicity observation is questionable
Procedure: VZV was grown to a CPE level […] of 3-4 + on HFF cell monolayers. The VZV was scraped from the flask, centrifuged and the cell pellet was resuspended in 10 ml of complete medium. 100 to 200 µl of the VZV cell associated inoculum was inoculated onto confluent HFF cell monolayers by absorption for 60 minutes at 37°C. After absorption of the virus, the inoculum was aspirated from the cell monolayers.
The VZV-infected monolayers were rehydrated with medium containing the appropriate concentrations of compounds to be tested. All monolayers were incubated at 37°C. Development of VZV cytopathology was monitored daily for 7 days by inverted light microscopy. Titers were calculated by multiple regression analysis.

[2] = system: HSV-2 strain 186; assay: Mouse genital HSV-2 model, intravaginal prophylaxis; format: in vivo, Swiss Webster mice; details: repeat study
[3] = system: HSV-2 strain 186; assay: as above; format: in vivo, Swiss Webster mice
Procedure: Sixty female Swiss Webster mice pretreated with medroxyprogesterone acetate were randomized to four groups of 15 to receive either Saline (control), 2 % Acyclovir, 2 % Compound 96, or 0.5% Compound 96. Animals were anesthetized by intraperitoneal injection of sodium pentabarbital and then administered 15 µl of control or test compound intravaginally in one treatment. They were then immediately challenged by intravaginal instillation with 15 µl of a suspension containing 10^4 plaque forming units HSV-2 strain 186. Vaginal swabs were collected on days 1 and 2 post-inoculation (PI) to assess the effect of treatment on vaginal replication in the genital tract. In addition, all animals were examined daily until day 21 PI for mortality and signs of infection (erythema, hair loss and hind limb paralysis).

[4] = system: human foreskin fibroblast (HFF) cell monolayers; assay: Toxicity effects controls (sham-inoculated compound treated HFF monolayers); format: cell-based; details: for TOXICITY EFFECTS CONTROL: Experiment 4, Table 10
Excerpt: Sham-incolulated, non-treated HFF cell monolayers were included along with the drug-treated monolayers as "cell monolayer controls". • 1. HSV-1 inoculated, non-compound treated HFF monolayers were included as "positive controls"; and • 2.
In the tables, the symbols have the meaning indicated: + = toxic; - = no toxicity; +/- = mild toxicity; ND = not done; T = toxicity effects interfered with CPE rating; CPE = cytopathic effect.

[5] = 0.001 mg/ml, 24 hrs post incubation
[6] = 0.001 mg/ml, 48 hrs post incubation
[7] = 0.01 mg/ml, 24 hrs post incubation
[8] = 0.01 mg/ml, 48 hrs post incubation
[9] = 0.1 mg/ml, 24 hrs post incubation
[10] = 0.1 mg/ml, 48 hrs post incubation
[11] = 0.5 mg/ml, 24 hrs post incubation
[12] = 0.5 mg/ml, 48 hrs post incubation
[13] = 1 mg/ml, 24 hrs post incubation
[14] = 1 mg/ml, 48 hrs post incubation
[15] = 5 mg/ml, 24 hrs post incubation
[16] = 5 mg/ml, 48 hrs post incubation

CC1=CC(C)=[N+]2CC[N+]3=C(C)C=C(C)[O][Co-3]23([n+]2cc[nH]c2C)([n+]2cc[nH]c2C)[O]1 [Compound 96]
VIRUCIDAL EFFICACY 7 Days Post Inoculation Efficacy [1]: T? | protection from visible infection and death ([2]; concentrations of 0.1 % or more): completely protected | animals protected from death ([2]; lowest concentration of 0.01 %): 6 of 10 | signs of genital disease ([3]; 2 % and 0.5% groups, 15 mice each): none of these animals developed any signs of genital disease | mortality ([3]; 2 % and 0.5% groups, 15 mice each, to day 21 PI): all lived | vaginal herpes infection ([3]; topical (intravaginal) application before HSV-2 challenge): completely blocked | virus in the genital tract ([3]; vaginal swabs on day 1 or 2 PI): no detectable virus | TOXICITY EFFECTS CONTROLS ([4]; Experiment 1, Table 1, 0.001 mg/ml, 24 h): - | TOXICITY EFFECTS CONTROLS ([4]; Experiment 1, Table 1, 0.001 mg/ml, 48 h): - | TOXICITY EFFECTS CONTROLS ([4]; Experiment 1, Table 1, 0.01 mg/ml, 24 h): - | TOXICITY EFFECTS CONTROLS ([4]; Experiment 1, Table 1, 0.01 mg/ml, 48 h): - | TOXICITY EFFECTS CONTROLS ([4]; Experiment 1, Table 1, 0.1 mg/ml, 24 h): - | TOXICITY EFFECTS CONTROLS ([4]; Experiment 1, Table 1, 0.1 mg/ml, 48 h): - | TOXICITY EFFECTS CONTROLS ([4]; Experiment 1, Table 1, 1 mg/ml, 24 h): - | TOXICITY EFFECTS CONTROLS ([4]; Experiment 1, Table 1, 1 mg/ml, 48 h): - | toxicity ([4]; Experiment 1, 1 mg/ml): lack of toxicity | TOXICITY EFFECTS CONTROLS ([4]; Experiment 2, Table 4, 0.001 mg/ml, 24 h PI): - | TOXICITY EFFECTS CONTROLS ([4]; Experiment 2, Table 4, 0.001 mg/ml, 48 h PI): - | TOXICITY EFFECTS CONTROLS ([4]; Experiment 2, Table 4, 0.01 mg/ml, 24 h PI): - | TOXICITY EFFECTS CONTROLS ([4]; Experiment 2, Table 4, 0.01 mg/ml, 48 h PI): - | TOXICITY EFFECTS CONTROLS ([4]; Experiment 2, Table 4, 0.1 mg/ml, 24 h PI): - | TOXICITY EFFECTS CONTROLS ([4]; Experiment 2, Table 4, 0.1 mg/ml, 48 h PI): - | TOXICITY EFFECTS CONTROLS ([4]; Experiment 2, Table 4, 1 mg/ml, 24 h PI): - | TOXICITY EFFECTS CONTROLS ([4]; Experiment 2, Table 4, 1 mg/ml, 48 h PI): - | TOXICITY EFFECTS CONTROLS ([4]; Experiment 3, Table 7, 0.001 mg/ml, 24 hrs post incubation): - | TOXICITY EFFECTS CONTROLS ([4]; Experiment 3, Table 7, 0.001 mg/ml, 48 hrs post incubation): - | TOXICITY EFFECTS CONTROLS ([4]; Experiment 3, Table 7, 0.01 mg/ml, 24 hrs post incubation): - | TOXICITY EFFECTS CONTROLS ([4]; Experiment 3, Table 7, 0.01 mg/ml, 48 hrs post incubation): - | TOXICITY EFFECTS CONTROLS ([4]; Experiment 3, Table 7, 0.1 mg/ml, 24 hrs post incubation): +/- | TOXICITY EFFECTS CONTROLS ([4]; Experiment 3, Table 7, 0.1 mg/ml, 48 hrs post incubation): +/- | TOXICITY EFFECTS CONTROLS ([4]; Experiment 3, Table 7, 0.5 mg/ml, 24 hrs post incubation): - | TOXICITY EFFECTS CONTROLS ([4]; Experiment 3, Table 7, 0.5 mg/ml, 48 hrs post incubation): - | TOXICITY EFFECTS CONTROLS ([4]; Experiment 3, Table 7, 1 mg/ml, 24 hrs post incubation): - | TOXICITY EFFECTS CONTROLS ([4]; Experiment 3, Table 7, 1 mg/ml, 48 hrs post incubation): +/- | TOXICITY EFFECTS CONTROLS ([4]; Experiment 3, Table 7, 5 mg/ml, 24 hrs post incubation): +/- | TOXICITY EFFECTS CONTROLS ([4]; Experiment 3, Table 7, 5 mg/ml, 48 hrs post incubation): +/- | TOXICITY EFFECTS CONTROL [4, 5]: - | TOXICITY EFFECTS CONTROL [4, 6]: - | TOXICITY EFFECTS CONTROL [4, 7]: - | TOXICITY EFFECTS CONTROL [4, 8]: - | TOXICITY EFFECTS CONTROL [4, 9]: +/- | TOXICITY EFFECTS CONTROL [4, 10]: +/- | TOXICITY EFFECTS CONTROL [4, 11]: - | TOXICITY EFFECTS CONTROL [4, 12]: - | TOXICITY EFFECTS CONTROL [4, 13]: +/- | TOXICITY EFFECTS CONTROL [4, 14]: +/- | TOXICITY EFFECTS CONTROL [4, 15]: +/- | TOXICITY EFFECTS CONTROL [4, 16]: + | TOXICITY EFFECTS CONTROLS ([4]; Experiment 5, Table 12, 48 Hours Post Incubation, 0.001 mg/ml): - | TOXICITY EFFECTS CONTROLS ([4]; Experiment 5, Table 12, 48 Hours Post Incubation, 0.01 mg/ml): - | TOXICITY EFFECTS CONTROLS ([4]; Experiment 5, Table 12, 48 Hours Post Incubation, 1 mg/ml): - | TOXICITY EFFECTS CONTROLS ([4]; Experiment 5, Table 12, 48 Hours Post Incubation, 2 mg/ml): +/- | TOXICITY EFFECTS CONTROLS ([4]; Experiment 5, Table 12, 48 Hours Post Incubation, 5 mg/ml): +/- | toxicity ([4]; Experiment 5, cell rounding, detaching from the monolayer, increased granularity, loss of normal morphology): more pronounced in the 0.5 and the 0.1 mg/ml concentrations

CC1=CC(C)=[N+]2CC[N+]3=C(C)C=C(C)[O][Co-3]23([n+]2c[nH]c(C)c2)([n+]2c[nH]c(C)c2)[O]1 [Compound 97]
TOXICITY EFFECTS CONTROL [4, 5]: - | TOXICITY EFFECTS CONTROL [4, 6]: - | TOXICITY EFFECTS CONTROL [4, 7]: - | TOXICITY EFFECTS CONTROL [4, 8]: - | TOXICITY EFFECTS CONTROL [4, 9]: +/- | TOXICITY EFFECTS CONTROL [4, 10]: +/- | TOXICITY EFFECTS CONTROL [4, 11]: - | TOXICITY EFFECTS CONTROL [4, 12]: - | TOXICITY EFFECTS CONTROL [4, 13]: +/- | TOXICITY EFFECTS CONTROL [4, 14]: +/- | TOXICITY EFFECTS CONTROL [4, 15]: +/- | TOXICITY EFFECTS CONTROL [4, 16]: +

CC1=[N+]2CC[N+]3=C(C)C=C(c4ccccc4)[O][Co-3]23([n+]2cc[nH]c2C)([n+]2cc[nH]c2C)[O]C(c2ccccc2)=C1 [Compound 102]
TOXICITY EFFECTS CONTROL [4, 5]: - | TOXICITY EFFECTS CONTROL [4, 6]: - | TOXICITY EFFECTS CONTROL [4, 7]: - | TOXICITY EFFECTS CONTROL [4, 8]: - | TOXICITY EFFECTS CONTROL [4, 9]: - | TOXICITY EFFECTS CONTROL [4, 10]: - | TOXICITY EFFECTS CONTROL [4, 11]: - | TOXICITY EFFECTS CONTROL [4, 12]: - | TOXICITY EFFECTS CONTROL [4, 13]: +/- | TOXICITY EFFECTS CONTROL [4, 14]: +/- | TOXICITY EFFECTS CONTROL [4, 15]: +/- | TOXICITY EFFECTS CONTROL [4, 16]: +
